Reference: patent US20060115426A1, “Methods of detecting breast cancer, brain cancer, and pancreatic cancer” (priority 2004, published 2006)
“Also recorded” adds a separate entry of the source.

Tests used:
[1] = test system: pancreatic adenocarcinomas; test: Bioscan imaging of 125I-NM404 in c-myc spontaneous pancreatic adenocarcinoma model; type: in vivo, mouse; conditions: c-myc transgenic mice, adenocarcinomas 5-12 mm in diameter
Excerpt: Mouse Pancreatic Adenocarcinoma Models: Two murine strains that are transgenic for either c-myc or k-ras, well-known oncogenes, have been developed at the University of Wisconsin (Sandgren E P, et al. Proc. Natl. Acad. Sci. USA 88:93-97, 1991 and Grippo P J, et al. Cancer Research 63:2016-2019, 2003). Expression of c-myc is targeted to pancreatic acinar cells because it is linked to an elastase promoter, which is only expressed in the pancreas. These ela-1-myc transgenic mice develop acinar and ductal neoplasia, which results in death between 2 and 7 months of age. By one month of age, the pancreas appears thickened and firm. Thus mice between the ages of 1-3 months serve as excellent models for the study of pancreatic cancer. Most human pancreatic neoplasms have a ductal morphology, and Dr. Sandgren's transgene targeting strategies are aimed at developing tumors that are specific for pancreatic ductal epithelium.
Imaging Studies: In order to determine if NM404 localizes in mouse pancreatic tumors, six c-myc transgenic mice were scanned on a Bioscan AR-2000 radioTLC scanner (modified by inventors for mouse imaging) from 2-21 days after tail vein injection of ^[…] (15 μCi/20 g body weight). […] At sacrifice, tissues were excised, weighed, and radioactivity quantitated in a gamma counter.

[2] = test system: spontaneous mammary carcinomas; test: Bioscan imaging of 125I-NM404 in Apc Min/+ endogenous mammary adenocarcinoma model; type: in vivo, mouse
Excerpt: Apc^Min/+ Mouse Model: This model is comprised of mice carrying the Min allele of Apc (Apc^Min/+ mice) and the type of lesions that appear in these mice are molecularly and histologically similar to breast cancer in humans. This model offers specific advantages over xenograft models in that female Apc^Min/+ mice are predisposed to developing mammary hyperplasias and carcinomas and intestinal adenomas. On the C57BL6/J genetic background, about 5% of untreated females will develop a mammary tumor by 100 days of age (Moser A R, et al. Proc. Natl. Acad. Sci. USA 90:8977-81, 1993). The incidence and multiplicity of the mammary lesions can be increased by a single dose of ethylnitrosourea (ENU), a direct acting alkylating agent. Treatment with ENU results in 90% of B6 Apc^Min/+ females developing an average of 3 mammary squamous cell carcinomas (SCC), but few hyperplasic lesions within 60 days after treatment.
Genetic background can affect the incidence, latency, and type of mammary lesions that develop. For example, FVBxB6 Apc^Min/+ female mice develop an average of 0.2 mammary tumors per mouse, but 4 hyperplasias per mouse within 120 days of treatment. BALB/xB6 Apc^Min/+ develop an average of 1.8 mammary tumors and 0.6 hyperplasias per mouse (Moser A R, et al. Cancer Research 61:3480-3485, 2001). FVBxB6 and BALBxB6 Apc^Min/+ mice develop both mammary SCC and adenocarcinomas (AC).
Imaging Studies: NM404 (100 μg) was radioiodinated with ^125I via isotope exchange in a melt of privalic acid. Following HPLC purification it was dissolved in an aqueous 2% tween-20 solution prior to tail vein injection (15 μCi/20 g mouse) into 6 female Apc^Min/+ mice. Mice were anesthetized and scanned for up to 30 days post injection on a modified Bioscan AR2000 radio-TLC scanner (1 mm increments at 2 mm acquisition/lane and 1 mm high-resolution collimator) and also in an ImTek microCT scanner (390 steps) for anatomic comparison. […] At sacrifice, mammary glands or excised tumors were imaged ex vivo, lesions were excised, weighed, and radioactivity quantitated. Lesion samples were submitted for histological classification. If necessary a long-acting CT blood pool contrast agent (BP20), as described in Weichert J P, et al. Radiology 216:865-871, 2000 and suitable for long microCT acquisitions times, was injected intravenously prior to CT scanning in order to assist in blood vessel visualization (FIG. 3).

viable tumor cells = test: Autoradiography experiments in other tumor models; type: in vivo; conditions: versus normal or necrotic tissues
C6 gliomas [3] = test: Biodistribution (tissue distribution) of 125I-NM404 in glioma-bearing rats; type: in vivo, rat; conditions: for Tumor/brain ratio: based on % injected dose/g; for tissue distribution, Thyroid: indicator of in vivo deiodination
Experimental: (§1) Glioma tumor model: All animals were housed and handled in accordance with the University of Wisconsin Research Animal Resources Center guidelines. Rat C6 glioma cells were propagated in DMEM medium (Life Technologies, Gaithersburg, Md.) supplemented with 10% heat-inactivated FBS (BioWhittaker, Walkersville, MD), 100 U/ml penicillin-G, 100 μg/ml streptomycin, and 0.01 M hepes (Life Technologies, Gaithersburg, Md.). Intracranial tumor implantation was performed as described in Badie B, et al. J. Neuroimmunol. 133:39-45, 2002. Briefly, 1×10^6 C6 cells were resuspended in 5 μl of 1.2% methylcellulose and injected into the frontal lobes of anesthetized female Wistar rats (Harlan, Indianapolis, Ind.). Sham-operated animals received intracranial injections of an equal volume of methylcellulose without tumor cells.
Biodistribution studies: Rats bearing C6 gliomas (n=4, 10 day old tumors), and sham-operated rats (n=3) were injected with ^125I-NM404 (15 μCi/200 g rat) and biodistribution studies performed as described in Rampy M A, et al. J. Med. Chem. 38:3156-3162, 1995. Accordingly, animals were euthanized by exsanguination at 24, 48, and 96 hours following injection. A total of 17 tissues including blood, plasma, adrenal glands, bladder wall, bone marrow, brain, eye lens, fat, heart, kidney, liver, lung, muscle, spleen, skin, thyroid, and tumor were excised, rinsed, and dissected free of extraneous tissue. Tissues were minced and duplicate samples weighed and placed in plastic tubes for isotope counting in a gamma counter (Perkin Elmer/Wallac Wizard-1470). Injection site and residual carcass radioactivity were determined in a well counter (Capintec CRC-15R). Time normalized tissue distribution tables were generated by a custom computer program which produces decay-corrected tissue radioactivity concentration data on a percent injected dose/g, […], and percent injected dose/organ±SEM basis.

C6 gliomas [4] = test: Bioscan imaging of excised brains of C6 glioma-bearing and sham-operated rats; type: in vivo, rat
Experimental: as §1
Imaging studies: Ten days after implantation rats were screened for the presence of intracranial tumors with MRI as described in Badie B, et al. Clin. Cancer Res. 9:872-877, 2003. […]
NM404 (100 μg) was radioiodinated with ^125I via isotope exchange in a melt of pivalic acid (Weichert J P, et al. Int J Appl Rad Isotopes 37:907-913,1986). […] Co-registered Bioscan images and digital photographs were fused (Corel Photo-Paint) in order to accurately determine the location of radioactivity. […]

[5] = test system: CNS-1 brain tumor xenografts; test: MicroPET evaluation of 124I-NM404 in rat CNS-1 brain tumor model; type: in vivo; conditions: CNS-1 rats
Experimental: NM404 was radiolabeled with ^124I in excellent radiochemical yield (>60% isolated yield, >99% purity) via isotope exchange reaction of stable NM404 with sodium-iodide (Eastern Isotopes, Sterling Va.). Following preparative HPLC purification ^124I-NM404 was solubilized in 2% Tween-20 and filtered (0.22 micron). NM404 (130-200 μCi in 0.1 ml) was injected (i.v., tail vein) into 6 rats with CNS-1 brain tumor xenografts. MicroPET images (Concorde Microsystems-P4, 30 min acquisition) were acquired immediately after and at 6 h, 24 h, and 96 h post injection. Contrast-enhanced MRI images were obtained immediately following the final PET scan and PET/MRI images were manually fused using Amira (V3.1, TGS, Inc). Rats were euthanized and brain tissue subjected to histopathologic analysis.

[6] = Apc Min/+ mice, Bioscan imaging

C[N+](C)(C)CCOP(=O)([O-])OCCCCCCCCCCCCCCCCCCc1ccc(I)cc1 [NM404, 18-(p-iodophenyl)-octadecylphosphocholine]
retention in pancreatic adenocarcinomas [1]: > 21 days
uptake in pancreatic adenocarcinomas ([1]; i.v. 15 μCi/20 g): striking uptake
HPLC analysis of radioactive urine and feces ([2]; Apc Min/+ mice after i.v. 125I-NM404): presence of metabolites and no parent NM404
localization in focal alveolar (mammary) hyperplasias [2, 6]: no corresponding focal activity; also recorded: did not localize
localization in intestinal adenomatous polyps [2, 6]: no uptake; also recorded: did not localize
uptake in spontaneous mammary carcinomas ([2]; Apc Min/+ mice, i.v. 125I-NM404 15 μCi/20 g, carcinomas 2-15 mm in diameter): > 20 % dose/g
tumor retention ([2]; Apc Min/+ mice, mammary carcinomas, 21 days = predetermined study endpoint): > 21 days
cells/tissues capable of accumulating NM404 (autoradiography) (viable tumor cells): only viable tumor cells
Tumor/brain ratio (C6 gliomas [3]; 24 h): 10.6
tissue distribution, Thyroid (C6 gliomas [3]; 48 h, N = 1): 2.3 % injected dose/g tissue
Tumor/brain ratio (C6 gliomas [3]; 48 h): 12.0
tissue distribution, Thyroid (C6 gliomas [3]; 96 h, N = 2, ± SEM): 9.0 % injected dose/g tissue
Tumor/brain ratio (C6 gliomas [3]; 96 h): 7.8
tracer uptake in C6 gliomas on Bioscan images (C6 gliomas [4]; C6 glioma-bearing rats, 24-96 h after i.v. 125I-NM404 15 μCi/200 g): intense localization; also recorded: concentrated intensely
radioactivity in normal brain tissue (C6 gliomas [4]; sham operated control rats): minimal

C[N+](C)(C)CCOP(=O)([O-])OCCCCCCCCCCCCCCCCCCc1ccc([124I])cc1 [^124 I-NM404]
tumor uptake (microPET) ([5]; 6 hours following injection): respectable tumor uptake
concomitant normal brain tissue activity (microPET) ([5]; any time point): Little to no
tumor conspicuity (microPET) ([5]; at either 24 or 96 hours): significant
tumor uptake (microPET) ([5]; within 30 minutes of i.v. injection): no tumor uptake

C[N+](C)(C)CCOP(=O)([O-])OCCCCCCCCCCCCCCCCCCc1ccc([125I])cc1 [^125I-NM404]
tissue distribution, Blood (C6 gliomas [3]; 24 h, N = 1): 1.83 % injected dose/g tissue
tissue distribution, Brain (C6 gliomas [3]; 24 h, N = 1): 0.07 % injected dose/g tissue
tissue distribution, Glioma (C6 gliomas [3]; 24 h, N = 1): 0.74 % injected dose/g tissue
tissue distribution, Kidney (C6 gliomas [3]; 24 h, N = 1): 0.91 % injected dose/g tissue
tissue distribution, Liver (C6 gliomas [3]; 24 h, N = 1): 0.77 % injected dose/g tissue
tissue distribution, Spleen (C6 gliomas [3]; 24 h, N = 1): 0.80 % injected dose/g tissue
Tumor/brain ratio (C6 gliomas [3]; 24 h): 10.6
tissue distribution, Blood (C6 gliomas [3]; 48 h, N = 1): 1.16 % injected dose/g tissue
tissue distribution, Brain (C6 gliomas [3]; 48 h, N = 1): 0.05 % injected dose/g tissue
tissue distribution, Glioma (C6 gliomas [3]; 48 h, N = 1): 0.60 % injected dose/g tissue
tissue distribution, Kidney (C6 gliomas [3]; 48 h, N = 1): 0.44 % injected dose/g tissue
tissue distribution, Liver (C6 gliomas [3]; 48 h, N = 1): 0.30 % injected dose/g tissue
tissue distribution, Spleen (C6 gliomas [3]; 48 h, N = 1): 0.33 % injected dose/g tissue
tissue distribution, Thyroid (C6 gliomas [3]; 48 h, N = 1): 2.34 % injected dose/g tissue
Tumor/brain ratio (C6 gliomas [3]; 48 h): 12.0
tissue distribution, Blood (C6 gliomas [3]; 96 h, N = 2, ± SEM): 0.82 ± 0.01 % injected dose/g tissue
tissue distribution, Brain (C6 gliomas [3]; 96 h, N = 2, ± SEM): 0.09 ± 0.02 % injected dose/g tissue
tissue distribution, Glioma (C6 gliomas [3]; 96 h, N = 2, ± SEM): 0.70 ± 0.04 % injected dose/g tissue
tissue distribution, Kidney (C6 gliomas [3]; 96 h, N = 2, ± SEM): 0.45 ± 0.05 % injected dose/g tissue
tissue distribution, Liver (C6 gliomas [3]; 96 h, N = 2, ± SEM): 0.39 ± 0.01 % injected dose/g tissue
tissue distribution, Spleen (C6 gliomas [3]; 96 h, N = 2, ± SEM): 0.33 ± 0.03 % injected dose/g tissue
tissue distribution, Thyroid (C6 gliomas [3]; 96 h, N = 2, ± SEM): 9.06 ± 3.84 % injected dose/g tissue
Tumor/brain ratio (C6 gliomas [3]; 96 h): 7.8
